Experimental data reported in article PMC12910498 (ACS pharmacology & translational science, 2026).
Read-outs that look alike come from different tables or passages of the source.

Columns and labels:
[1] = Phase I metabolic stability in human liver microsomes (with NADPH); type: in vitro ADME; conditions: pH 7.4, presence of NADPH, mean ± SD, n = 3
Method: (§1) We evaluated the Phase I metabolic stability of compounds 2−7 and 14−19 using rat and human liver microsomes, as previously described.[45]
(§2) Phase I metabolic stability assays were conducted using rat and human liver microsomes as previously described[45],[70] with minor modifications. In brief, the reactions were carried out with 100 mM potassium phosphate buffer, pH 7.4, in the presence of NADPH regenerating system (1.3 mM NADPH, 3.3 mM glucose 6-phosphate, 3.3 mM MgCl2, 0.4 U/mL glucose-6-phosphate dehydrogenase, 50 μM sodium citrate). Negative controls without cofactors were assessed to determine the non-CYP-mediated metabolism. Compound disappearance was monitored over time using a liquid chromatography and tandem mass spectrometry (LC/MS) method. All reactions were performed in triplicate.
(§3) Chromatographic analysis was performed on a Dionex ultra high-performance LC system coupled with Q Exactive Focus orbitrap mass spectrometer (Thermo Fisher Scientific Inc., Waltham MA). Separation was achieved using Agilent Eclipse Plus column (100 × 2.1 mm^2 i.d.; maintained at 35 °C) packed with a 1.8 μm C18 stationary phase. […] The total run time for each analyte was 6.5 min. Pumps were operated at a flow rate of 0.3 mL/min. The mass spectrometer controlled by Xcalibur software 4.0.27.13 (Thermo Scientific) was operated with a HESI ion source in positive ionization mode. Compounds were identified in the full-scan mode (from m/z 50 to 750) by comparing t = 0 samples with t = 30 min and t = 60 min samples.

[2] = Phase I metabolic stability in rat liver microsomes (with NADPH); type: in vitro ADME; conditions: pH 7.4, presence of NADPH, mean ± SD, n = 3
Method: as §1, §2, §3

[3] = biological target: T1, D1 (Homo sapiens, UniProt P21728); assay: PDSP primary screen and secondary assay, D1; type: binding
T1 construct: Psychoactive Drug Screening Program (PDSP)
Text: Receptor Primary Secondary Primary Secondary Primary Secondary Primary Secondary screen assay screen assay screen assay screen assay […]
inhibition in primary assessment.

[4] = biological target: T2, human D4R (Homo sapiens, UniProt P21917); assay: DiscoverX PathHunter β-arrestin recruitment assay, D4R
T2 sequence (P21917 1-419): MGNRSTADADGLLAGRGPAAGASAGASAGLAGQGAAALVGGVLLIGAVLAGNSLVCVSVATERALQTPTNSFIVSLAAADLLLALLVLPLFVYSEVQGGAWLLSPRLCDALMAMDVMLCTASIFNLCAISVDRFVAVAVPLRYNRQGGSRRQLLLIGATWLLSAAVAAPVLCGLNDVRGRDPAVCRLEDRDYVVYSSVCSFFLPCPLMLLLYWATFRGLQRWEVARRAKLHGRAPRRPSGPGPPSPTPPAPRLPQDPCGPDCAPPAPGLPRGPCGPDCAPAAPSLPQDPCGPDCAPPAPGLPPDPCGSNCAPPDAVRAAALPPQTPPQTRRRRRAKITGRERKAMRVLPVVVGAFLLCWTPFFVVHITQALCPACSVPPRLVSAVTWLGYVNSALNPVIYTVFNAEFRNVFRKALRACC

[5] = biological target: T2, human D4R
[6] = Pharmacokinetics study in rats (plasma and brain); type: in vivo, Sprague−Dawley rats; conditions: rat, 10 mg/kg IP
Method: Given their adequate in vitro stability profiles, we next evaluated the in vivo pharmacokinetic profiles of 14, 15, 17, and 18 in rats. Sprague−Dawley rats were dosed with 5 mg/kg (14, 15, 17) or 10 mg/kg (18), i.p., and plasma and brain levels of each drug were measured 0−6 h postdose.
All animal experiments were performed following the protocols evaluated and approved by the Animal Care and Use Committee at Johns Hopkins University (Ethics Approval Number: RA24M403). Pharmacokinetic studies in Sprague−Dawley (SD) rats were conducted according to protocols approved. SD rats obtained from Harlan were maintained on a 12 h light−dark cycle with ad libitum access to food and water. Test compound was administered via i.p. injection at a dose of 10 mg/kg (100% saline vehicle, 10 mL/kg volume). The rats were sacrificed at specified time points (0.25, 0.5 h, 1, 2, 4, and 6 h) post drug administration. For the collection of plasma and brain tissue, animals were euthanized with CO2, and blood samples were collected in heparinized microtubes by cardiac puncture. Brains were dissected and immediately flash-frozen (−80 °C). Blood samples were spun at 2000g for 15 min, and plasma was removed and stored at −80 °C until analysis (as described below).
Quantitation of triazole analogs 14, 15, 17, and 18 was performed using liquid chromatography with tandem mass spectrometry (LC/MS-MS) methods. Briefly, calibration standards were prepared using respective tissue (naïve plasma and brain) with additions of the test compounds. For quantifying the test compounds in the pharmacokinetic samples, plasma samples (20 μL) were processed using a single liquid extraction method by addition of 100 μL of acetonitrile containing internal standard (losartan: 0.5 μM), followed by vortex-mixing for 30 s and then centrifugation at 10,000g for 10 min at 4 °C. Brain tissues were diluted 1:5 w/v with acetonitrile containing losartan (0.5 μm) and homogenized, followed by vortex-mixing and centrifugation at 10,000g for 10 min at 4 °C. A 50 μL aliquot of the supernatant was diluted with 50 μL of water and transferred to 250 μL polypropylene autosampler vials sealed with Teflon caps. Two μL of the sample was injected into the LC/MS/MS system for analysis. Chromatographic analysis was performed using an Accela ultra high-performance system consisting of an analytical pump and an autosampler coupled with a TSQ Vantage mass spectrometer. […] The mobile phase consisted of 0.1% formic acid in acetonitrile and 0.1% formic acid in water with gradient elution, starting with 10% organic phase (from 0 to 1 min) linearly increasing to 95% (from 1 to 2 min), and re-equilibrating to 10% by 3 min. The total run time for each analyte was 3.5 min. Pumps were operated at a flow rate of 0.4 mL/min. […] Plasma concentrations (nmol/mL) as well as brain tissue concentrations (nmol/g) were determined and plots of mean plasma concentration versus time were constructed. Noncompartmental analysis modules in Phoenix WinNonlin version 7.0 (Certara USA, Inc., Princeton, NJ) were used to quantify exposures (AUC0−t) and half-life (t1/2).

T1 sequence (P21728 whole entry): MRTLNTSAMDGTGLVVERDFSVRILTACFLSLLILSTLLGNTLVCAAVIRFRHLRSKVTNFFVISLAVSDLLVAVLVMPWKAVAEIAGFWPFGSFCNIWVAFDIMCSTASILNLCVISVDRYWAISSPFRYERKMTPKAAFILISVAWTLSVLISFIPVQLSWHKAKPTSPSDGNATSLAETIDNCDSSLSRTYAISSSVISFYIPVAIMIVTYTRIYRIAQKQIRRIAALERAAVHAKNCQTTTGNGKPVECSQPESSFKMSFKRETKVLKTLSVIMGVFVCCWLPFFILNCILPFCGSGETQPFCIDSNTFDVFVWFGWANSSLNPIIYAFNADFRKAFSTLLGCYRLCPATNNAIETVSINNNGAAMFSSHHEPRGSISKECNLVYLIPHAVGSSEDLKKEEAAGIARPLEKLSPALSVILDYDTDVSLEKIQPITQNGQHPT

`Cc1cccc(-n2cc(CN3CCN(c4cccc5ccccc45)CC3)nn2)c1` [Compound 18, 1-(Naphthalen-1-yl)-4-((1-(m-tolyl)-1H-1,2,3-triazol-4-yl)methyl)piperazine] gave a half-life [1] of 1.02 ± 0.129 h, a half-life [2] of 0.946 ± 0.169 h and a Ki [3] of 783 nM. It also gave an inhibition at 10 µM ([3]; 10 µM compound) of 59.3%, an EC50 [4] greater than 10000 nM and an IC50 [4] of 3600 ± 1100 nM. For the same compound, the “D4R average activity at the highest tested dose” value ([4]; agonist mode, at 10 μM (Emax ND)) was “ND (8% at 10 μM)”, the “D4R Ant. (%)” value ([4]; antagonist mode, EC80 dopamine (1 μM), normalized to spiperone) was 92.1 ± 12.1% and the EC50 [5] was 2140 ± 1070 nM. For the same compound, the IC50 [5] was 904 ± 102 nM, the “D4R Ant. (%)” value ([5]; cAMP, antagonist mode, 10 μM forskolin and 10 nM dopamine, normalized to spiperone) was 72 ± 5% and the Emax ([5]; read-out: D4R Emax (%)) was 24 ± 7%. The Kp ([6]; Sprague-Dawley, brain and plasma, ip, 10 mg/kg, AUC brain/plasma, read-out: brain: Plasma ratio) was greater than 2.6, the half-life ([6]; Sprague-Dawley, brain, ip, 10 mg/kg, brain, read-out: half-life (h) brain (converted)) was 2.46 h and the half-life ([6]; Sprague-Dawley, plasma, ip, 10 mg/kg, plasma, read-out: half-life (h) plasma (converted)) was 2.54 h. The half-life ([6]; Sprague-Dawley, plasma, ip, 10 mg/kg, tissue not specified, read-out: half-life (converted)) was roughly 2.5 h, the Tmax ([6]; Sprague-Dawley, brain, read-out: Tmax (h) brain) was 0.5 h and the AUC ([6]; Sprague-Dawley, plasma) was 1.36 ± 0.29 µM·h. For the same compound, the Cmax ([6]; Sprague-Dawley, plasma) was 700 ± 90 nM, the Tmax ([6]; Sprague-Dawley, plasma, read-out: Tmax (h) plasma) was 0.5 h and the “brain: Plasma ratio” value ([6]; AUC brain/plasma, 10 mg/kg) was 2.63. For the same compound, the AUC brain ([6]; brain) was 3.57 ± 0.77 nmol·h/g, the Cmax brain ([6]; brain) was 2.08 ± 0.20 nmol/g and the “peak in vivo brain concentrations expected” value ([6]; from brain Cmax) was “greater than 2.0 μM”.
